Measured values: PubChem BioAssay (NCI)
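Compound exposure: 48 hours, 5 concentrations, 96-well plates. GI50 = concentration required for 50% inhibition of growth. TGI: total growth inhibition.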

Key:
Experiment in all cases: NCI tumour cell line growth inhibition, 48 h
[1] = system: NCI-H522 lung
[2] = system: OVCAR-5 ovarian
[3] = system: MOLT-4 leukemia
[4] = system: UACC-62 melanoma
[5] = system: U251 CNS
[6] = system: OVCAR-3 ovarian
[7] = system: HT29 colon
[8] = system: HCT-15 colon

Row | Compound | TGI [1] [µM] | TGI [2] [µM] | TGI [3] [µM] | TGI [4] [µM] | TGI [5] [µM] | TGI [6] [µM] | TGI [7] [µM] | TGI [8] [µM] | GI50 [1] [µM] | GI50 [2] [µM] | GI50 [3] [µM] | GI50 [8] [µM] | GI50 [4] [µM] | GI50 [5] [µM] | GI50 [6] [µM] | GI50 [7] [µM]
1 | CCOc1ccc(NC(=O)CC#N)cc1 | > 100 | > 100 | > 100 | > 100 | > 100 | > 100 | > 100 | – | – | – | – | – | – | – | – | –
2 | COc1cccc(C2=NC(C(C)C)CO2)c1 (stereo not given) | > 100 | > 100 | > 100 | > 100 | – | > 100 | > 100 | > 100 | – | – | – | – | – | – | – | –
3 | CN(C)CC1CCCC/C1=N/OC(=O)c1ccc(Cl)cc1 (stereo not given) | > 100 | > 100 | > 100 | > 100 | > 100 | > 100 | > 100 | > 100 | – | – | – | – | – | – | – | –
4 | Cc1ccc(NC(=O)CCc2cc(C(C)(C)C)nc(=S)[nH]2)cc1C | > 100 | > 100 | > 100 | > 100 | > 100 | > 100 | > 100 | > 100 | – | – | – | – | – | – | – | –
5 | Cc1cc(N(CCC#N)CCC#N)ccc1N=Nc1ccc(C(=O)O)cc1 | > 100 | > 100 | > 100 | > 100 | > 100 | > 100 | > 100 | > 100 | – | – | – | – | – | – | – | –
6 | CCN1CCC(O)(c2ccc(OC)cc2)C(C(=O)c2ccc(OC)cc2)C1 (stereo not given) | 4.06 | 32.3 | > 100 | 32.2 | 30.5 | 31.6 | 48.1 | 43.1 | – | – | – | – | – | – | – | –
7 | C1CN2CCN3CCN4CCN1[P+]243 | > 100 | > 100 | > 100 | > 100 | > 100 | > 100 | > 100 | > 100 | – | – | – | – | – | – | – | –
8 | O=c1ccn([C@H]2CSC[C@@H](CO)C2)c(=O)[nH]1 | > 100 | > 100 | > 100 | > 100 | > 100 | > 100 | > 100 | > 100 | – | – | – | – | – | – | – | –
9 | O=C1/C(=C/c2ccc(Cl)cc2)CCC1CCN1CCOCC1 (stereo not given) | – | > 100 | 82.6 | > 100 | – | > 100 | > 100 | > 100 | – | – | – | – | – | – | – | –
10 | CC(=O)Oc1c2c(c(O)c3ccccc13)C(n1cnc3c(ncn3C3OC(CO)C4OC(C)(C)OC43)c1=N)CCC2 (stereo not given) | 19.3 | 35.9 | 35.9 | 29 | 33.3 | 27.8 | 29.2 | 29.3 | – | – | – | – | – | – | – | –
11 | CN1CCOC(c2ccccc2)O1 (stereo not given) | > 100 | > 100 | > 100 | > 100 | > 100 | > 100 | > 100 | > 100 | – | – | – | – | – | – | – | –
12 | CCC[CH2][Sn]([Cl])([CH2]CCC)[CH2]CCC | 0.27 | 0.248 | 0.632 | 0.373 | 0.236 | 0.312 | 0.143 | 0.242 | 0.116 | 0.117 | 0.0522 | 0.1 | 0.135 | 0.113 | 0.142 | 0.0396
13 | COc1ccc(CC2NCCc3c2[nH]c2ccccc32)cc1 (stereo not given) | – | > 100 | > 100 | > 100 | > 100 | > 100 | > 100 | > 100 | – | – | – | – | – | – | – | –
14 | S=c1sc2c(Cl)nc(Cl)nc2n1-c1ccccc1 | 23.8 | > 100 | > 100 | 27.8 | 98 | 60.4 | > 100 | 32 | – | – | – | – | – | – | – | –
15 | CCCNC(=S)NNC(=O)CSc1nc(-c2ccccc2)c(-c2ccccc2)[nH]1 | 78.1 | > 100 | 61.7 | > 100 | > 100 | 79.7 | > 100 | > 100 | – | – | – | – | – | – | – | –
16 | O=C(CCc1n[nH]c(=S)o1)Nc1ccccc1C(F)(F)F | > 100 | > 100 | > 100 | > 100 | > 100 | > 100 | > 100 | 38.8 | – | – | – | – | – | – | – | –
17 | O=C1/C(=C/c2ccc3c(c2)OCO3)SC2C=Nc3ccccc3N12 (stereo not given) | > 100 | > 100 | > 100 | > 100 | > 100 | > 100 | > 100 | > 100 | – | – | – | – | – | – | – | –
18 | OCC1OC(c2nc(C3=NCCCN3)cs2)C(O)C1O (stereo not given) | > 100 | > 100 | > 100 | > 100 | > 100 | > 10 | > 100 | > 100 | – | – | – | – | – | – | – | –
19 | Cc1ccccc1N1C(=O)C2C=CC(n3[nH]c(=O)n(Cc4ccccc4)c3=O)CC2C1=O (stereo not given) | > 100 | > 100 | > 100 | > 100 | > 100 | > 100 | > 100 | > 100 | – | – | – | – | – | – | – | –
